Columns and labels:
[1] = test system: Pseudomonas aeruginosa PAO-1; assay: Photoinactivation (biocidal activity) of Pseudomonas aeruginosa cell suspension after red light irradiation; type: cell-based
Procedure: The usefulness of the pharmaceutical compositions of the present invention has been evaluated through their activity against the Gram negative micro-organisms Pseudomonas aeruginosa PAO-1 and E. coli ATCC 25922. These microorganisms were used in the experiments in a stationary phase of growth.
(§1) The experimental protocol was the following:
(§2) The cell suspensions were diluted in an appropriate medium. Addition of an aliquot of stock solution of the composition to be tested to the cell suspension up to the intended final concentrations. Incubation in dark at 37° C. for 5 minutes. Irradiation (650≦λ≦850 nm; 50÷100 mW/cm2; 1÷10 minutes) of cell suspension for each dilution of the photosensitising composition.

E. coli ATCC 25922 = assay: Photoinactivation (biocidal activity) of E. coli cell suspension after red light irradiation; type: cell-based; settings: for concentration able to sterilize completely the cell suspension: in combination with EDTA 0.5 mM, 100 mW/cm2 red light (FIG. 2, FIG. 5)
Procedure: These microorganisms were used in the experiments in a stationary phase of growth.
as §1, §2

## {2,3,9,10,16,17,23,24-octa[3-(N,N,N-trimethylammonium)phenoxy]zinc(II) phthalocyanine}octaiodide [compound 1]
[1]; compound alone, no chelating agent, 100 mW/cm2 red light (FIG. 3)
  concentration up to which not active (photoinactivation): > 40 µM
[1]; with EDTA 0.5 mM, 1 μM concentration, 100 mW/cm2 red light (FIG. 3a)
  reduction of the population: 5 log
[1]; with EDTA 0.5 mM, 100 mW/cm2 red light (FIG. 3a)
  concentration able to sterilize the cell suspension: 5 µM
E. coli ATCC 25922; compound alone, no chelating agent, 5 min incubation, irradiation 100 mW/cm2 red light (FIG. 1)
  reduction of the initial population: 4 log
E. coli ATCC 25922; compound alone, no chelating agent, irradiation 100 mW/cm2 red light (FIG. 1)
  complete sterilization of the cell suspension: cannot be obtained
E. coli ATCC 25922; 5 min incubation
  concentration able to sterilize completely the cell suspension: 1 µM

## {2(3),9(10),16(17),23(24)-tetra[1,3-bis-(trimethylammonium)propyl-2-oxy]zinc(II) phthalocyanine}octaiodide [compound 2]
E. coli ATCC 25922; 5 min incubation
  concentration able to sterilize completely the cell suspension: 1 µM
E. coli ATCC 25922; without EDTA, 5 min incubation, 100 mW/cm2 red light (FIG. 5a)
  photosensitizer concentration necessary to sterilize the cell suspension: 20 µM

Reference: patent US8664382B2, “Antibacterial compositions comprising metal phthalocyanine analogues” (Molteni Therapeutics S.r.l., priority 2002, dated 2014)
